Experimental data taken from PubChem BioAssay (NCI).
Several values for one entry are separate records, joined by “and”; a condition that tells them apart may be missing. Equal values may be shown once.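 Where inhibition never reached the appropriate level, the endpoint shown equals the highest concentration tested. Otherwise, values were interpolated linearly from a five-concentration, 48-hour dose response in 96-well plates. At the GI50, growth is halved. TGI: total growth inhibition.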

Tests used:
Assay in all cases: NCI anticancer screen, dose series, 48 h
[1] = system: HOP-62 NSCLC
[2] = system: MALME-3M melanoma
[3] = system: NCI-H460 lung
[4] = system: HL-60(TB) leukemia
[5] = system: T-47D breast
[6] = system: A549 NSCLC
[7] = system: OVCAR-5 ovarian
[8] = system: PC-3 prostate
[9] = system: SF-268 CNS
[10] = system: U251 CNS

## CCOc1ccc2nc(NC(=O)C(=O)C(c3cnc4ccccc4n3)[N+](=O)[O-])sc2c1 (configuration not stated)
[1]
  TGI: > 100 µM
[2]
  TGI: > 100 µM
[3]
  TGI: > 100 µM
[4]
  TGI: > 100 µM
[5]
  TGI: > 100 µM
[6]
  TGI: > 100 µM
[7]
  TGI: > 100 µM
[8]
  TGI: > 100 µM
[9]
  TGI: > 100 µM

## Cc1cccc(NC(=O)c2cccc([N+](=O)[O-])c2O)c1C
[10]
  TGI: > 100 µM
[1]
  TGI: 52.4 µM
[2]
  TGI: > 84.2 µM
[3]
  TGI: > 69.6 µM
[4]
  TGI: 22.1 µM
[5]
  TGI: > 100 µM
[6]
  TGI: > 100 µM
[7]
  TGI: > 89.2 µM
[8]
  TGI: > 100 µM
[9]
  TGI: > 100 µM

## Cc1cc(N2CCOCC2)cc2[nH]c(-c3c(NC[C@@H](O)c4cccc(Cl)c4)cc[nH]c3=O)nc12
[10]
  GI50: 1.65 µM
  TGI: 4.38 µM
[1]
  GI50: 2.16 µM
  TGI: 12.3 µM
[2]
  GI50: 1.68 µM
  TGI: 14.8 µM
[3]
  GI50: 0.51 µM
  TGI: 11.2 µM
[4]
  GI50: 0.0567 µM
  TGI: 2.45 µM
[5]
  GI50: 4.17 µM
  TGI: 37.8 µM
[6]
  GI50: 0.903 µM
  TGI: 4.31 µM
[7]
  GI50: 0.673 µM
  TGI: 9.66 µM
[8]
  GI50: 3.7 µM
  TGI: > 100 µM
[9]
  GI50: 2.06 µM
  TGI: 7.63 µM

## Cc1cnc(C(=O)NNc2nc3sc4c(c3c(=O)n2C)C(C)CCC4)cn1 (configuration not stated)
[10]
  GI50: 0.228 µM
  TGI: 2.32 µM
[1]
  GI50: 0.304 µM
  TGI: 5.65 µM
[2]
  GI50: 0.544 µM
  TGI: 3.29 µM
[3]
  GI50: 0.194 µM
  TGI: 2.02 µM
[4]
  GI50: 0.269 µM
  TGI: 0.765 µM
[5]
  GI50: 0.416 µM
  TGI: 5.68 µM
[6]
  GI50: 0.371 µM
  TGI: 4.69 µM
[7]
  GI50: 0.491 µM
  TGI: 7.4 µM
[8]
  GI50: 0.465 µM
  TGI: 11.2 µM
[9]
  GI50: 0.28 µM
  TGI: 6.65 µM

## C=C1CC2(OC1=O)C(=O)Nc1ccccc12 (configuration not stated)
[10]
  GI50: 13.1 µM
  TGI: 30.5 µM
[1]
  GI50: 12.6 µM
  TGI: 29.6 µM
[2]
  GI50: 1.24 µM
  TGI: 2.64 µM
[3]
  GI50: 6.48 µM
  TGI: 24.7 µM
[4]
  GI50: 1.73 µM
  TGI: 3.85 µM
[5]
  GI50: 1.13 µM
  TGI: 2.92 µM
[6]
  GI50: 12.9 µM
  TGI: 34.3 µM
[7]
  GI50: 5.83 µM
  TGI: 19.4 µM
[8]
  GI50: 5.26 µM
  TGI: 18.8 µM
[9]
  GI50: 6.72 µM
  TGI: 26 µM

## C#CCOc1cccc(Nc2ncnc3cc(NC(=O)CCl)ccc23)c1
[10]
  GI50: 2.13 µM
  TGI: 4.78 µM
[1]
  GI50: 11.3 µM
  TGI: 28.8 µM
[2]
  GI50: 5.21 µM
  TGI: 20.5 µM
[3]
  GI50: 3.64 µM
  TGI: 12.1 µM
[4]
  GI50: 3.29 µM
  TGI: 12.5 µM
[5]
  GI50: 9.11 µM
  TGI: 32 µM
[6]
  GI50: 5.03 µM
  TGI: 17.9 µM
[7]
  GI50: 10.3 µM
  TGI: 23 µM
[8]
  GI50: 2.57 µM
  TGI: 12 µM
[9]
  GI50: 4.32 µM
  TGI: 19.7 µM

## COc1ccc2c(c1)C(=O)c1c-2n(CCCI)c(=O)c2cc([N+](=O)[O-])ccc12
[10]
  GI50: 0.138 µM and 0.047 µM
  TGI: 5.64 µM and 1.27 µM
[1]
  GI50: 0.143 µM
  TGI: 7.77 µM
[2]
  GI50: 1.36 µM and 2.85 µM
  TGI: 18.4 µM and 43.3 µM
[3]
  GI50: 0.0117 µM and 0.0296 µM
[4]
  GI50: 0.167 µM and 0.0526 µM
  TGI: 2.26 µM and 0.822 µM
[5]
  GI50: 0.173 µM and 0.163 µM
  TGI: 1.65 µM and 8.64 µM
[6]
  GI50: 0.316 µM and 0.402 µM
  TGI: 50 µM and 40.9 µM
[7]
  TGI: 7.75 µM and 46.3 µM
[8]
  GI50: 0.279 µM and 1.42 µM
  TGI: 30.4 µM and > 100 µM
[9]
  GI50: 0.161 µM and 0.141 µM
  TGI: 44.4 µM and > 100 µM

## COc1cc(Nc2ncc(F)c(Nc3ccc4c(n3)N(COP(=O)(O)O)C(=O)C(C)(C)O4)n2)cc(OC)c1OC
[10]
  GI50: 7.55 µM and 2 µM
  TGI: > 100 µM
[1]
  GI50: 2.25 µM and 0.753 µM
  TGI: 10.2 µM and 7.37 µM
[2]
  GI50: 3 µM and 5.93 µM
  TGI: 17.8 µM and > 10 µM
[3]
  GI50: 3.59 µM and 3.45 µM
  TGI: > 100 µM
[4]
  GI50: 4.19 µM and 6.05 µM
  TGI: 32.6 µM and > 10 µM
[5]
  GI50: 2.92 µM and 1.24 µM
  TGI: 26 µM and > 10 µM
[6]
  GI50: 2.27 µM and 2.11 µM
  TGI: > 26.8 µM
[7]
  GI50: 1.7 µM and 1.38 µM
  TGI: 9.62 µM and > 10 µM
[8]
  GI50: 2.1 µM and 4.17 µM
  TGI: 22.6 µM and > 10 µM
[9]
  GI50: 1.45 µM and 1.04 µM
  TGI: 5.22 µM and 3.73 µM

## Cc1ncc(C(=O)Nc2ccc(CN3CCN(C)CC3)c(C(F)(F)F)c2)cc1C#Cc1cnc(N)cc1C#N
[10]
  GI50: 1.63 µM
  TGI: 4.02 µM
[1]
  GI50: 0.573 µM
  TGI: 2.91 µM
[2]
  GI50: 0.0196 µM
  TGI: 0.125 µM
[3]
  GI50: 0.417 µM
  TGI: 2.84 µM
[4]
  GI50: 0.481 µM
  TGI: 2.85 µM
[5]
  GI50: > 16.7 µM
  TGI: > 16.7 µM
[6]
  GI50: 1.26 µM
  TGI: 3.93 µM
[7]
  GI50: 1.66 µM
  TGI: 4 µM
[8]
  GI50: 0.71 µM
  TGI: 3.48 µM
[9]
  GI50: 0.605 µM
  TGI: 3.33 µM

## CSc1nc(SC)c2c(CO)c(Br)n(Cc3ccccc3)c2n1
[10]
  TGI: 26.3 µM
[1]
  TGI: 80.1 µM
[2]
  TGI: > 100 µM
[3]
  TGI: 30.5 µM
[4]
  TGI: > 100 µM
[5]
  TGI: 74.2 µM
[6]
  TGI: > 100 µM
[7]
  TGI: > 100 µM
[8]
  TGI: > 100 µM
[9]
  TGI: 33.7 µM

## O=c1c(-c2ccccc2)coc2cc(OC/C(=N/O)c3ccccc3)ccc12
[10]
  GI50: 21.4 µM
  TGI: 56.1 µM
[1]
  GI50: 18.9 µM
  TGI: 51.3 µM
[2]
  GI50: 10.4 µM
  TGI: 28.3 µM
[3]
  GI50: 11 µM
  TGI: 26.9 µM
[4]
  GI50: 21.3 µM
  TGI: 95.9 µM
[5]
  GI50: 15.3 µM
  TGI: 96.7 µM
[6]
  GI50: 3.62 µM
  TGI: 25.2 µM
[7]
  GI50: 37 µM
  TGI: > 100 µM
[8]
  GI50: 17.4 µM
  TGI: 46 µM
[9]
  GI50: 13.5 µM
  TGI: 28.7 µM

## COc1ccc(-c2ccc(-c3ccc(C(=N)N)o3)o2)cc1
[10]
  GI50: 1.74 µM
  TGI: 4.12 µM
[1]
  GI50: 1.51 µM
  TGI: 4.51 µM
[2]
  GI50: 3.97 µM
  TGI: 19.1 µM
[3]
  GI50: 1.17 µM
  TGI: 3.28 µM
[4]
  GI50: 1.23 µM
  TGI: 3.16 µM
[5]
  GI50: 1.53 µM
  TGI: 4.07 µM
[6]
  GI50: 1.49 µM
  TGI: 4.79 µM
[7]
  GI50: 2.42 µM
  TGI: 5.88 µM
[8]
  GI50: 1.86 µM
  TGI: 7.07 µM
[9]
  GI50: 2.04 µM
  TGI: 7.22 µM

## OCC#Cc1ccccc1C#CCCCCCC#Cc1ccccc1C#CCO
[10]
  GI50: 20.9 µM
  TGI: 36 µM
[1]
  GI50: 16.2 µM
  TGI: 31.4 µM
[2]
  GI50: 20.7 µM
  TGI: 52.6 µM
[3]
  GI50: 17.4 µM
  TGI: 34 µM
[4]
  GI50: 18.8 µM
  TGI: 41.8 µM
[5]
  GI50: 16.9 µM
  TGI: 32.3 µM
[6]
  GI50: 19.2 µM
  TGI: 45.3 µM
[7]
  GI50: 12.8 µM
  TGI: 28.6 µM
[8]
  GI50: 18.1 µM
  TGI: 38.8 µM
[9]
  GI50: 18.8 µM
  TGI: 38.7 µM
